Measured values as given in a melting point compilation (Tetko et al.; mined from patent text by program, amines drawn as free bases though some values may be those of a salt).

Compound | melting point [°C]
N#Cc1cncc(C2OC(CO)C(O)C2O)c1 (stereo unspecified) | 169 to 171
CSCCCn1cc(C(=O)NCc2ccc(Cl)cc2)c(=O)c2cc(CN3CCOCC3)ccc21 | 102 to 104
COc1ccc(F)cc1C(C)(C)CC(O)(CN1CC(=O)N(C)c2ccccc21)C(F)(F)F (stereo unspecified) | 132 to 134
COC(=O)N1CCC(c2ccc(N3C[C@H](CNC(C)=O)OC3=O)cc2F)CC1 | 165 to 166
CC(C)(C)n1nc(-c2ccccc2)c(C(N)=O)c1N | 177 to 178
Cc1ccc2c(c1)C(c1ccccc1Cl)C(=O)N2 (stereo unspecified) | 208
NC1=Nc2ccc(Cl)cc2C2CCCC12F (stereo unspecified) | 223
COC(=O)C1=NC2=COc3ccc(C)cc3N2C1C(=O)O (stereo unspecified) | 178 to 179
N#CCCC(C#N)(CCC#N)C(N)=O | 118 to 120
O=C(CCCO)NCC1c2ccccc2CCc2ccccc21 | 98 to 99
CC(C)(C)OC(=O)Nc1ccc(-c2ncn(-c3ccc(OC(F)(F)C(F)(F)F)cc3)n2)cc1 | 205 to 209
C[C@H](NC(=O)C[C@@H](CCO)c1ccc(F)cc1)c1ccccc1 | 170
CCCOc1ccc(OC)cc1-c1ncc(C(=O)O)c(=O)[nH]1 | 185 to 187
CSCc1cn(C)c2cc(F)ccc2c1=O | 167 to 169
Cc1ccc(C(=O)Nc2ccc(N3CCNCC3)cc2)c(-c2ccc(C(C)C)cc2)c1 | 131 to 133
CCn1cc(C(=O)O)c(=O)c2cc(F)c(N3CCC3CN)nc21 (stereo unspecified) | 198 to 200
Cc1cc(-c2ccccc2)nc(-c2cccc([N+](=O)[O-])c2)c1C(=O)O | 191 to 192
COc1ccc(CNc2nc(OCc3ccccn3)ncc2C(=O)c2ccccn2)cc1Cl | 81 to 84
Cc1nc(NCCSCc2nc[nH]c2C)[nH]c(=O)c1Cc1cccnc1 | 128 to 131
Cc1c(C)c([N+](=O)[O-])c(C)c2c1OC(C)(C)C2c1ccccc1 (stereo unspecified) | 155 to 156
CCCCCc1nc2c(N)nc3ccccc3c2s1 | 119 to 121
CCCCCCC(=O)CC(C)=O | 105 to 106
CCCCCCOc1ccc2nc(-c3ccc(COC(CCCCCC)C(F)(F)F)cc3)sc2c1 (stereo unspecified) | 69.1
CC(C)c1nc(-c2ccc(S(C)(=O)=O)cc2)c(-c2ccc(F)cc2)[nH]1 | 214 to 215
COc1ccc(-c2cc(COc3cccc4cc(NS(=O)(=O)C(F)(F)F)ccc34)ccc2F)cc1 | 132 to 133
O=C(c1cccnc1)N1CC2CCc3ccccc3C2=N1 (stereo unspecified) | 141 to 143

Compound | melting point [°C]
CC(C)(C(=O)O)C(O)c1ccnc(-c2nc(=O)c3ccccc3s2)c1 (stereo unspecified) | 235 to 236
COc1cc(O)c(C(=O)C=Cc2ccc3nc[nH]c3c2)c(OC)c1 | 147 to 149
C1=Nc2ccccc2OC1 | 126 to 129
O=C(O)C(=O)CC(=O)c1cccn1Cc1ccc(Br)cc1 | 184 to 185
O=c1[nH]c(Cl)c(Cc2ccccc2)c(=O)n1Cc1ccccc1 | 146 to 148
CC(=O)OCCCN1CCC(CNC(=O)[C@@H]2CCCN2S(=O)(=O)c2ccc(Cl)c(COc3cccc4c(-n5cncn5)cc(C)nc34)c2Cl)CC1 | 120
CCCC(=O)N(CC)c1cccc(-c2ccc3nnc(C)n3n2)c1 | 127 to 129
CC(C)c1cc(C=C2C(=O)NC(=O)N2C)cc(C(C)C)c1O | 197 to 208
Cc1sccc1C1=C(c2ccsc2C)C(F)(F)C(F)(F)C1(F)F | 73.6
Cc1nc(-c2ccc(F)cc2)c(COc2ccc(-c3nc4cc(C(=O)O)ccc4n3C3CCCCC3)cc2)s1 | 196 to 198
COC(=O)c1cc(F)c(N2CCC(NC(C)=O)C2)nc1Nc1ccc(F)cc1F (stereo unspecified) | 199 to 200
COc1ccc(CC2=NC(C)(C)CO2)cc1[N+](=O)[O-] | 88 to 90
CCCC(=O)c1cc2c(=O)c(C(=O)OCC)cn(CC)c2cc1C | 145 to 146
CS(=O)(=O)OCc1cc(OCc2ccccc2)cc(OCc2ccccc2)c1 | 85 to 86
CCCCCC=CCC=CCCCCCCCCBr | 35
O=c1[nH]ncn1-c1ccc(-n2ncn(-c3ccc(OCC(F)(F)C(F)F)cc3)c2=O)cc1 | 297 to 298
COc1cccc(OC)c1-c1nc2c(N[C@H]3[C@@H](C(N)=O)[C@@H]4C=C[C@H]3C4)c(Br)cnc2[nH]1 | 194 to 197
CCCCN1CCC(NC(=O)c2ccc(NCc3ccnc4ccccc34)cc2)CC1 | 189 to 190
Cc1c(-c2ccccc2)nn(C(C)C(=O)N(C)C)c1[N+](=O)[O-] (stereo unspecified) | 141 to 143
CC(Oc1ccc(Oc2ccc(C(F)(F)F)cc2Cl)cc1)C(=O)N1CCCO1 (stereo unspecified) | 66.5 to 67.5
CC(=O)OC(C)c1cc2c(s1)C(=O)c1sccc1C2=O (stereo unspecified) | 165 to 166
COc1cc2c(cc1C(F)(F)F)N(C(=O)Nc1cc(F)cc(-c3cnccc3C)c1)CC2 | 191 to 195
O=C(Nc1cc2ncc(CN3CCCC3)cc2cc1F)c1ccc(-c2ccc(OC(F)(F)F)cc2)cc1 | 184 to 187
CS(=O)(=O)c1ccc(-c2cnn(Cc3ccccc3)c(=O)c2Oc2ccc(F)cc2)cc1 | 188 to 190
C[C@H]1CN(c2ccccn2)[C@@H](C)CN1C1=c2ccccc2=NCN1c1ccccc1 (relative stereo) | 68 to 70
COc1ccc2cc(N3CCC4(CCN(C)CC4)CC3)ccc2c1 | 122 to 125

Compound | melting point [°C]
NS(=O)(=O)c1ccc(C2CCN(c3cc([N+](=O)[O-])ccn3)CC2)cc1 | 215 to 217
CCCNC(=O)CCn1c(CCC)nc2c(N)nc3ccccc3c21 | 157 to 158
O=C(O)/C=C(\c1cc(F)cc(F)c1)C(F)(F)F | 129 to 130
NC(=O)c1nc(-c2ccccc2)n2c1CN=C(c1ccccc1F)c1cc(Cl)ccc1-2 | 260 to 262
CCOC(CNC(=S)Nc1ccnn1C)OCC | 148 to 149
Cc1[nH]nc(Oc2ncc(C(F)(F)F)cc2Cl)c1C | 102 to 103
CS(=O)(=O)c1ccc(-c2ccc(S(=O)(=O)CC(CO)N(O)C=O)cc2)cc1 (stereo unspecified) | 165 to 167
CCOC(=O)c1c(C2CCNCC2)[nH]c(-c2cccc(C(F)(F)F)c2)c1-c1ccncc1 | 233 to 235
CC(=O)NCc1ccc(CC(=NNc2ccc(Br)cn2)c2ccccc2)o1 | 176
CC(=O)NNC(=N)CCCCn1cnc(NC(N)=NCC(F)(F)F)n1 | 157 to 159
C#CCNC1=Nc2ccc(Cl)cc2C(c2ccccc2)=NC1 | 202
Clc1ccnc(-n2ccnc2)n1 | 138 to 139
O=C(O)Cn1cc(Cc2cccc([N+](=O)[O-])c2)c2ccccc21 | 163 to 165
COc1ccc2cccc(N3CCN(CCC4CC(=O)Nc5ccccc54)CC3)c2c1 (stereo unspecified) | 177 to 178
O=c1[nH]c2ccc(CCN3CCN(c4cccc5ccccc45)CC3)cc2o1 | 282 to 285
CC(=O)C(=Cc1ccc(C#N)cc1)C(=O)C1CC1 | 83 to 85
COC(=O)c1sccc1-c1cc2c(cc1C)C(C)(C)CCC2(C)C | 89 to 90
CC(C)(S)CNCc1ccc(O)cc1 | 85 to 87
Cc1ccc(N)c(C)c1C1OCCO1 | 100 to 103
COc1cc(-c2nc(-c3ccc(N(C)C)cc3)c(C)o2)ccc1OC(C)=O | 97 to 102
CCCCCc1ccc(-c2ccc(CC#N)cc2)cc1 | 80
Cn1c(COc2ccc(Cn3cc(CCC(=O)O)c(-c4ccccc4)n3)cc2)nc2ccccc21 | 225 to 226
O=C(NC1CCC1)c1ccc(F)c2c1CC(N(CCCc1c[nH]c3ccc(F)cc13)C1CCC1)CO2 (stereo unspecified) | 135
CCCCCCCC(=O)Oc1ccc(-c2ccc(C#N)cc2)cc1 | 77.5 to 77.9
Nc1nc(Cl)c(Cl)nc1CO | 174 to 176
Clc1cn2c(Cl)cnc2c(Br)n1 | 100 to 101

Compound | melting point [°C]
COc1ccnc(Nc2nc(-c3ccncc3)cs2)c1 | 190 to 192
Clc1nccc(Nc2cnc3ccccc3c2)n1 | 140 to 143
CC#CCOc1ccc(OCC(=O)OCC)cc1 | 100 to 105
COc1cc(OC)c(-c2nc3ncccc3[nH]2)s1 | 93 to 96
CCOC(=O)C1(c2cccc(Cl)c2C)CCN(S(=O)(=O)c2ccc(C)cc2)CC1 | 134
CN(Cc1ccc(NC(=O)C2CCS(=O)(=O)c3ccc(OCc4ccc(F)cc4)cc3C2)cc1)C1CCOCC1 (stereo unspecified) | 232 to 234
COc1ccc(-c2cncc(OC3SCC(O)C(O)C3O)c2)cc1OC (stereo unspecified) | 211
CNc1ncnc2c1c(=O)n(C)c(=O)n2C | 178 to 179
Oc1ccc2c(c1)Sc1ccccc1CN2 | 172 to 174
Cn1c(=O)n(C)c2cc3c(N4CCN(C(=O)Nc5ccc(Oc6ccccc6)cc5)CC4)ncnc3cc21 | 250 to 255
Cc1cc(O)nc(C(Cl)(Cl)Cl)n1 | 173 to 174
O=C(Oc1ccc(O)c([N+](=O)[O-])c1)c1ccccc1 | 97
c1ccc(-c2ccc(-c3cnc(-c4ccccc4)[nH]3)cn2)cc1 | 206
O=C1CCc2c1ccc(F)c2F | 28 to 32
CCCCC(=O)N(Cc1ccc(-c2ccccc2-c2nnnn2C(c2ccccc2)(c2ccccc2)c2ccccc2)cc1)C(C(=O)O)C(C)C (stereo unspecified) | 170
CCn1cc(CN(C(=O)C2CCc3cc(OC)ccc32)c2ccc(C(C)C)cc2)cn1 (stereo unspecified) | 115 to 116
CN(C)S(=O)(=O)c1cc2c(c(Cl)c1Cl)OC(CCl)C2 (stereo unspecified) | 77 to 78
O=C(COc1ccc(CCNS(=O)(=O)c2ccccc2)cc1)Nc1ccccc1 | 123
N#Cc1ccc(-c2nc(C(F)(F)F)c(C(=O)O)s2)cc1 | 195 to 196
CCOC(=O)C(=NNc1ccc(C)cc1C)C(C)=O | 106 to 108
N#Cc1ccc2c(c1)C(c1ncnc3c1cnn3C1CCCC1)C(=O)N2 (stereo unspecified) | > 300
CC(C)c1ccc2c(c1)OCc1ccc(C#N)cc1C2=O | 101 to 108
O=C(O)/C=C/c1ccc(OCC2CCCO2)cc1Oc1ncc(C(F)(F)F)cc1Cl (stereo unspecified) | 106 to 109
